The values below come from ChEMBL document CHEMBL3739410, “The natural product brartemicin is a high affinity ligand for the carbohydrate-recognition domain of the macrophage receptor mincle” (Medchemcomm, 2015).

The assay is filed under the species Bos taurus. In words: Displacement of radioiodinated Man31-bovine serum albumin from biotin-tagged bovine mincle CRD after 2 hr by scintillation counting analysis relative to alpha,alpha-trehalose.

For `Cc1cc(O)cc(O)c1C(=O)OC[C@H]1O[C@H](O[C@H]2O[C@H](COC(=O)c3c(C)cc(O)cc3O)[C@@H](O)[C@H](O)[C@H]2O)[C@H](O)[C@@H](O)[C@@H]1O`, the Ratio Ki came out at 290.
